Reference: US11116219B2, “Method for controlling discharge-type multidrug resistant plant diseases” (SUMITOMO CHEMICAL COMPANY, LIMITED, priority 2017, dated 2021)

Assays:
[1] = system: efflux type multidrug resistant fungus strain 2: MFS transporter-overexpressing fungus strain (Bc-107) of grapes gray mold fungus (Botrytis cinerea); test: Control test against efflux type multidrug resistant grapes gray mold fungus, strain 2; format: cell-based
Method: (§1) Control Test Against Efflux Type Multidrug Resistant Grapes Gray Mold Fungus (Botrytis cinerea)
(§2) Each of the present compound (1), fludioxonil and tolnaftrate was diluted with dimethyl sulfoxide to a prescribed concentration thereof, respectively. Each of the chemical solutions comprising the respective testing compound was dispensed into a titer plate (with 96 wells) in the amount of 1 μL. […] The plate was cultured at 18° C. for 2 days, thereby allowing each grapes gray mold fungus to undergo proliferation, and the absorbance at 600 nm of each well of the titer plate was then measured to determine a degree of growth of each of the grapes gray mold fungi (treated group). […]
(§3) The efficacy was calculated from the degree of the growth by the below-mentioned “Equation 1”, and then each EC50 value of the testing compound, respectively against the efflux type multidrug resistant fungus strains and the wild-type fungus strain was calculated. Also, an EC50 value ratio was calculated by the above-mentioned “Equation 2”.

[2] = system: grapes gray mold fungus (Botrytis cinerea) wild-type fungus strain; test: Control test against grapes gray mold fungus, wild-type fungus strain (titer plate growth, absorbance at 600 nm); format: cell-based; conditions: PDB culture media, 18° C., 2 days
Method: as §1, §2, §3

[3] = system: efflux type multidrug resistant fungus strain 3: ABC transporter and MFS transporter-overexpressing fungus strain (Bc-103) of grapes gray mold fungus (Botrytis …); test: Control test against efflux type multidrug resistant grapes gray mold fungus, strain 3; format: cell-based, Botrytis cinerea
Method: as §1, §2, §3

[4] = system: Efflux type multidrug resistant wheat Septoria leaf blotch fungus (Zymoseptoria tritici), fungus strain St 106-6; test: Control test against efflux type multidrug resistant wheat Septoria leaf blotch fungus (titer plate growth, absorbance at 600 nm); format: cell-based
Method: (§4) Control test against Efflux type multidrug resistant wheat Septoria leaf blotch fungus (Zymoseptoria tritici)
(§5) Each of the present compound (1) and tolnaftrate was diluted with dimethyl sulfoxide to a prescribed concentration thereof, respectively. Each of the chemical solutions comprising the respective testing compound was dispensed into a titer plate (with 96 wells) in the amount of 1 μL. […] The plate was cultured at 18° C. for 4 days, thereby allowing each wheat Septoria leaf blotch fungus to undergo proliferation, and the absorbance at 600 nm of each well of the titer plate was then measured to determine a degree of growth of the wheat Septoria leaf blotch fungus (treated group). […]
(§6) The efficacy was calculated from the degree of the growth by the below-mentioned “Equation 1”, and then each EC50 value of the testing compound, respectively against the efflux type multidrug resistant fungus strains and the wild-type fungus strain was calculated. Next, as shown in the below-mentioned “Equation 2”, an EC50 value ratio was calculated by dividing an EC50 value against the efflux type multidrug resistant fungus strains by an EC50 value against the wild-type fungus strain. […]

[5] = system: wheat Septoria leaf blotch fungus (Zymoseptoria tritici) wild-type fungus strain; test: Control test against wheat Septoria leaf blotch fungus, wild-type fungus strain (titer plate growth, absorbance at 600 nm); format: cell-based; conditions: PDB culture media, 18° C., 4 days
Method: as §4, §5, §6

[6] = system: efflux type multidrug resistant fungus strain 1: ABC transporter-overexpressing fungus strain (Bc-56) of grapes gray mold fungus (Botrytis cinerea); test: Control test against efflux type multidrug resistant grapes gray mold fungus, strain 1; format: cell-based
Method: as §1, §2, §3

Cn1c(=O)c2sc3c(=O)n(C)c(=O)c3sc2c1=O [Present compound (1)]
EC50 value, Efflux type multidrug resistant fungus strain 2 ([1]; Botrytis cinerea Bc-107 (MFS transporter-overexpressing), 18° C., 2 days): 1.7 ppm
EC50 value ratio 2 ([1]; EC50 against efflux type multidrug resistant strain 2 / EC50 against wild-type, Botrytis cinerea): 0.89
EC50 value, Wild-type fungus strain [2]: 1.9 ppm
EC50 value, Efflux type multidrug resistant fungus strain 3 ([3]; Botrytis cinerea Bc-103 (ABC and MFS transporter-overexpressing), 18° C., 2 days): 2.4 ppm
EC50 value ratio 3 ([3]; EC50 against efflux type multidrug resistant strain 3 / EC50 against wild-type, Botrytis cinerea): 1.3
EC50 value ratio ([4]; EC50 against efflux type multidrug resistant fungus strain / EC50 against wild-type fungus strain, Zymoseptoria tritici): 1.1
EC50 value, Efflux type multidrug resistant fungus strain ([4]; Zymoseptoria tritici St 106-6, PDB culture media, 18° C., 4 days): 1.3 ppm
EC50 value, Wild-type fungus strain [5]: 1.2 ppm
EC50 value, Efflux type multidrug resistant fungus strain 1 ([6]; Botrytis cinerea Bc-56 (ABC transporter-overexpressing), 18° C., 2 days): 1.7 ppm
EC50 value ratio 1 ([6]; EC50 against efflux type multidrug resistant strain 1 / EC50 against wild-type, Botrytis cinerea): 0.89
